Tested on: S. aureus
Experiment: Checkerboard titration synergy, S. aureus
Type: cell-based, Staphylococcus aureus
Details: synergistic when FICI ≤0.5
Description: The combined antimicrobial activity of the test compounds with the antibacterial or antifungal control agents was performed under the same conditions used for the MIC determination and following the procedures described by Carton Herrán, Reis de Sá et al. and Zharkova et al.. For each experiment, 16 samples (4 rows × 4 columns) in a total volume of 0.5 mL were prepared in tubes using an array of combinations between the MIC value and 0 μg/mL of the compound to be tested in each row, and between the MIC value and 0 μg/mL of the reference drug in each column. In this way, a variety of mixtures with different concentrations of them alone or in combination was obtained. Briefly, 0.5 mL of a microorganism culture was added to each one of the samples, and after incubation for 24 h with shaking at the appropriate temperature (37 °C or 30 °C), the tubs were visually inspected, and the OD600 was measured. From this information, the fractional inhibitory concentration index (FICI) was calculated according to the formula FIC index = ([A]/[CMI A]) + ([B]/[CMI B]), where [A] and [B] are respective concentrations of tested polyamine and reference drug in their combination effectively inhibiting the growth of bacteria or yeast, and [MIC A] and [MIC B] are the individual MICs of the tested polyamine and reference drug when they are used alone. An interaction is considered synergistic when the FICI value is ≤0.5 [41, 42].
To confirm the data obtained in the checkerboard assay, 30 μL of a ten-fold dilution of the tubes containing concentrations of half of the MIC of each one of the compounds alone (polyamine to be tested and reference drug) and one fourth of the MIC of each one in combination were also spread in LB or SC-ura plates (according to the microorganism considered in each case) and incubated at 37 °C or 30 °C. The visualisation of these plates was performed after 24 or 48 h, respectively. All these experiments were carried out in triplicate.

Oc1ccccc1CNCCN1CCNCc2cccc(n2)CNCC1 [Compound 6a]
no synergy and -: Synergy with Ampicillin | Synergy with Ciprofloxacin | Synergy with Doxycycline | Synergy with Gentamicin
